Measurements from ChEMBL document CHEMBL1909046, “DrugMatrix in vitro pharmacology data”.

How the values were obtained:
Adenosine receptor A3 = biological target: T1, Adenosine receptor A3 (Homo sapiens, UniProt P0DMS8); assay type: cell membranes, CHO-K1, Membrane;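 note: radioligand binding assay with AB-MECA serving as the labeled ligand; in other assays of this panel Not Active means under 50% inhibition at 10 µM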
T1 sequence (P0DMS8 whole entry): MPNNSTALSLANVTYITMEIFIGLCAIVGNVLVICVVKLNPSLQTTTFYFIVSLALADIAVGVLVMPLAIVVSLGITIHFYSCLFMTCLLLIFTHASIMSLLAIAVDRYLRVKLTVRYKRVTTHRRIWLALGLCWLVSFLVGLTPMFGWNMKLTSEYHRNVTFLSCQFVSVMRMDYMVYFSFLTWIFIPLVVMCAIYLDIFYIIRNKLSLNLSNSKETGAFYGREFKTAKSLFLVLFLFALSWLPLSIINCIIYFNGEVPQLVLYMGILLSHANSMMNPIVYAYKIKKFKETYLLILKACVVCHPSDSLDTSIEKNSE

[1] = biological target: Tyrosine-protein kinase Fyn (Homo sapiens, UniProt P06241); assay: biochemical; assay type: cell-based, Insect cells;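 note: enzymatic inhibition of Fyn kinase activity measured with Poly(Glu:Tyr) as the phosphorylation substrate; in other assays of this panel Not Active means under 50% inhibition at 10 µM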
Sequence of Tyrosine-protein kinase Fyn (P06241 whole entry): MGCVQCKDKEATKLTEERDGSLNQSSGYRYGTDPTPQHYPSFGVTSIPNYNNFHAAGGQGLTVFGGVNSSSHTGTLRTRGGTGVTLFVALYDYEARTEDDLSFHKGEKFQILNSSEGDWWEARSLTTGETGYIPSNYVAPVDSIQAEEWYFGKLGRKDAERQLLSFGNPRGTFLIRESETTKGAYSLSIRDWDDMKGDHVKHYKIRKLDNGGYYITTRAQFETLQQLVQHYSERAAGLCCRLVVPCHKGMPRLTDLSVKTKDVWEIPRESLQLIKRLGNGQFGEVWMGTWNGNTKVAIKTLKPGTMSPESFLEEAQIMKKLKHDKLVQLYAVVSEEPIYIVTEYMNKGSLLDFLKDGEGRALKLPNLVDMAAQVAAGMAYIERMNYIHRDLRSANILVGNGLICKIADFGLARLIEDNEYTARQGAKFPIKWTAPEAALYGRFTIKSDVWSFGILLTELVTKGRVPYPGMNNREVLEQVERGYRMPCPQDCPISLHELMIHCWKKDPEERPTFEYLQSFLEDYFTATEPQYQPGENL

Substance-P receptor = Substance-P receptor (Homo sapiens, UniProt P25103); assay type: cell membranes, CHO, Membrane; note: in other assays of this panel Not Active means under 50% inhibition at 10 µM
Sequence of Substance-P receptor (P25103 whole entry): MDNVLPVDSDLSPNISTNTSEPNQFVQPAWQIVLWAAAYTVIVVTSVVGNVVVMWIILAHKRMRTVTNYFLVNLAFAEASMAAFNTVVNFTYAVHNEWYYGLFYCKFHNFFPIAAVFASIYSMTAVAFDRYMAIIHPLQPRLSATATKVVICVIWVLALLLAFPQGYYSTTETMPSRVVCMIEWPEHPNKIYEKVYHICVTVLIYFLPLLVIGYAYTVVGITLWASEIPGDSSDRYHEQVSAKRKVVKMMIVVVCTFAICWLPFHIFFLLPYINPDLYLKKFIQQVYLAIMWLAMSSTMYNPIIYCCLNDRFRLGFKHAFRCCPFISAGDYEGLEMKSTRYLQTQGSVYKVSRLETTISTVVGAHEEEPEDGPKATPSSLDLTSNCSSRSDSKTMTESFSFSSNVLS

[2] = biological target: T2, C-X-C chemokine receptor type 1 (Homo sapiens, UniProt P25024); note: in other assays of this panel Not Active means under 50% inhibition at 10 µM
T2 sequence (P25024 whole entry): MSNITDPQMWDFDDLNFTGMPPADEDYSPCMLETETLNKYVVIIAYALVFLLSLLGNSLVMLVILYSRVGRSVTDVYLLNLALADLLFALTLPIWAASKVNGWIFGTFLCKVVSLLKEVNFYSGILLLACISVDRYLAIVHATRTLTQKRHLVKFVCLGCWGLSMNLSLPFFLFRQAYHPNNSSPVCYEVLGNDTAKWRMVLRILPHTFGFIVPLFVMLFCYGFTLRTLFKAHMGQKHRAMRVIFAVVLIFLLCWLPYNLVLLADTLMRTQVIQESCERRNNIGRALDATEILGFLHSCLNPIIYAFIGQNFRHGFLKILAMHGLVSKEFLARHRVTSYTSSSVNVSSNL

Carbonic anhydrase 2 = Carbonic anhydrase 2 (Homo sapiens, UniProt P00918); assay: DRUGMATRIX: Carbonic Anhydrase II enzyme inhibition (substrate: 4-Nitrophenyl acetate (4-NPA)); assay type: tissue-based, Erythrocyte; conditions: Not Active = under 50% inhibition at 10 µM
Melanocortin receptor 3 = Melanocortin receptor 3 (Homo sapiens, UniProt P41968); assay type: cell membranes, Membrane; conditions: hek293; note: in other assays of this panel Not Active means under 50% inhibition at 10 µM
Sequence of Melanocortin receptor 3 (P41968 whole entry): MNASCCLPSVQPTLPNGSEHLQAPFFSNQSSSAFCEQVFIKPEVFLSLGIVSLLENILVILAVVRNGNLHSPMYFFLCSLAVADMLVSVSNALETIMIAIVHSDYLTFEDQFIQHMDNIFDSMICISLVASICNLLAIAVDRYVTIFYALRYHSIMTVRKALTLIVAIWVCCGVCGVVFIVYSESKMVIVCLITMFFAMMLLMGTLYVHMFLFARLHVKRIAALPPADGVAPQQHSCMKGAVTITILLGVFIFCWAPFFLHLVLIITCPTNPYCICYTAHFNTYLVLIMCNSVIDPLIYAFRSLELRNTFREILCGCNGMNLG

[3] = biological target: Mitogen-activated protein kinase 14 (Homo sapiens, UniProt Q16539); parameters: species or system Escherichia coli
Sequence of Mitogen-activated protein kinase 14 (Q16539 whole entry): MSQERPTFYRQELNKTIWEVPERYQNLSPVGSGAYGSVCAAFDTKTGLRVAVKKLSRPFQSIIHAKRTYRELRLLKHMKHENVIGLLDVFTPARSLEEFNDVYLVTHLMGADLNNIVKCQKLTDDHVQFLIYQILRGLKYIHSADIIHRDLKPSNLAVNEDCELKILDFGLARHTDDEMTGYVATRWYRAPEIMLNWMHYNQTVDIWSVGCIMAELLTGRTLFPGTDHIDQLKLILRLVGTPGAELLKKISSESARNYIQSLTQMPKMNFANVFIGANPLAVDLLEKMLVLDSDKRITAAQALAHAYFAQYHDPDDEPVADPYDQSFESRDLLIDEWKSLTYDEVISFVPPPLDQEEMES

D(3) dopamine receptor = D(3) dopamine receptor (Homo sapiens, UniProt P35462); assay: DRUGMATRIX: Dopamine D3 radioligand binding (ligand: [3H] Spiperone); assay type: cell membranes, CHO, Membrane; conditions: for Ki: read-out: Ki
Sequence of D(3) dopamine receptor (P35462 whole entry): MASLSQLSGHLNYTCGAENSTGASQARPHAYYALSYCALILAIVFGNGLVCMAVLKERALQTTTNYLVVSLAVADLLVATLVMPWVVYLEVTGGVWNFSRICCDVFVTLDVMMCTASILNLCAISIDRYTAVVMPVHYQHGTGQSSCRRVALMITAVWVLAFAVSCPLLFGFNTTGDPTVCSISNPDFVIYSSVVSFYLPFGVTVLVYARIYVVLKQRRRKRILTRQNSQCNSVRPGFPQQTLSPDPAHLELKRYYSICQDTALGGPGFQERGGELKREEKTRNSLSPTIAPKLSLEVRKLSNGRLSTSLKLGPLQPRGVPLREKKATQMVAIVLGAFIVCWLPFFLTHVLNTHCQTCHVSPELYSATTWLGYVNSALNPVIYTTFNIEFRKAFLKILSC

Interstitial collagenase = biological target: T3, Interstitial collagenase (Homo sapiens, UniProt P03956); assay type: tissue-based, Rheumatoid synovial fibroblasts
T3 sequence (P03956 whole entry): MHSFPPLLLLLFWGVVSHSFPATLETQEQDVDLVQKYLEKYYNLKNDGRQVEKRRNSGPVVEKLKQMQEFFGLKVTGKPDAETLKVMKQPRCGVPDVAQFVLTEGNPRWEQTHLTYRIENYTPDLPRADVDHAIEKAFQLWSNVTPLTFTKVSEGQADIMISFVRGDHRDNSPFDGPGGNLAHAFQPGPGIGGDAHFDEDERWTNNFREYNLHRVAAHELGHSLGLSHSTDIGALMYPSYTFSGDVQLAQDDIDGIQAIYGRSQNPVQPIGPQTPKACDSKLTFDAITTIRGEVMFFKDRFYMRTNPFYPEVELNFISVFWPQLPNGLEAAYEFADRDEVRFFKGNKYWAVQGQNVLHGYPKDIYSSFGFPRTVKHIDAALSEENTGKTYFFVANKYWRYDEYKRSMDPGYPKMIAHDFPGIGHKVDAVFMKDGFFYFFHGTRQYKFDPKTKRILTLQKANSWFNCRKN

[4] = biological target: Delta-type opioid receptor (Homo sapiens, UniProt P41143); assay type: cell membranes, HEK293, Membrane; note: in other assays of this panel Not Active means under 50% inhibition at 10 µM
Sequence of Delta-type opioid receptor (P41143 whole entry): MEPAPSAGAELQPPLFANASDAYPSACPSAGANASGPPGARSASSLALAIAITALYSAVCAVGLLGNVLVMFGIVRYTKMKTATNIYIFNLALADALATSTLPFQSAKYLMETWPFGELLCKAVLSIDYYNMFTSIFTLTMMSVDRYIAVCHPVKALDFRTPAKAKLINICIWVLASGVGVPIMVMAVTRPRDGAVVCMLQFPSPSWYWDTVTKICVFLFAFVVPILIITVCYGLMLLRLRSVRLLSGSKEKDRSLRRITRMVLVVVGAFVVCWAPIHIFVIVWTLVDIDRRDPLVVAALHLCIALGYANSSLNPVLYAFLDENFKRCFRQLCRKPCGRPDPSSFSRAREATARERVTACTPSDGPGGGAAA

Progesterone receptor = biological target: T4, Progesterone receptor (Bos taurus, UniProt Q690N0); assay: DRUGMATRIX: Progesterone radioligand binding (ligand: [3H] R-5020); assay type: tissue-based, Uterus; conditions: Not Active = under 50% inhibition at 10 µM
T4 sequence (Q690N0 whole entry): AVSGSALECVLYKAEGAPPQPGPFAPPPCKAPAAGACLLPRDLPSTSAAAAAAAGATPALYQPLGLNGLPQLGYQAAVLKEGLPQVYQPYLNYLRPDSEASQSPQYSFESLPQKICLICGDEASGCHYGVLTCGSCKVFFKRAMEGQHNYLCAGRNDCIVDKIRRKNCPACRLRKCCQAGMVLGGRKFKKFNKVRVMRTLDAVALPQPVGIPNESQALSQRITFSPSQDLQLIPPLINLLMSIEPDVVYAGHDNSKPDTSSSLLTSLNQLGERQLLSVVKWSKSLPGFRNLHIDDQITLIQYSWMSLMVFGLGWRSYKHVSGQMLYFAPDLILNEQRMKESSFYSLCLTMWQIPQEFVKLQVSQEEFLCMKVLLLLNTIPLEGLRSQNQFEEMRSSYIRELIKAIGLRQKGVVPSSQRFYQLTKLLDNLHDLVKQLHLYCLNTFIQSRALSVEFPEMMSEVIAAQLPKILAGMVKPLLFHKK

[5] = biological target: Aldo-keto reductase family 1 member B1 (Rattus norvegicus, UniProt P07943); assay type: tissue-based, Lens of camera-type eye
D(1A) dopamine receptor = D(1A) dopamine receptor (Homo sapiens, UniProt P21728); assay: DRUGMATRIX: Dopamine D1 radioligand binding (ligand: [3H] SCH-23390); assay type: cell membranes, CHO, Membrane; conditions: cho; Not Active = under 50% inhibition at 10 µM
Sequence of D(1A) dopamine receptor (P21728 whole entry): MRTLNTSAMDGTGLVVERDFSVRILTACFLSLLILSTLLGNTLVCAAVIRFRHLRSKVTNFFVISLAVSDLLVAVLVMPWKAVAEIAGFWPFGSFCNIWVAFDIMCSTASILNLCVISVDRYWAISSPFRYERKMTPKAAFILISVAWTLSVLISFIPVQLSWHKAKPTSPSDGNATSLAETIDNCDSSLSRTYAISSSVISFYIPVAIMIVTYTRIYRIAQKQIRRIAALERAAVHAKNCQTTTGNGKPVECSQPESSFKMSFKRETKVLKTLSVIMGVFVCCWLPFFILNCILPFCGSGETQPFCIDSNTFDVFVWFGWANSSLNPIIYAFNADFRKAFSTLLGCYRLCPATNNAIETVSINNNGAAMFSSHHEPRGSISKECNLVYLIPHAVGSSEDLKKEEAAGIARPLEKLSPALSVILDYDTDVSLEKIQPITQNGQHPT

[6] = DRUGMATRIX: Glutamate, Kainate radioligand binding (ligand: [3H] Kainic acid); assay type: cell membranes, Rattus norvegicus, Wistar, Brain, Membrane; conditions: Not Active = under 50% inhibition at 10 µM
[7] = DRUGMATRIX: GABAA, Muscimol, Central radioligand binding (ligand: [3H] Muscimol); assay type: cell membranes, Rattus norvegicus, Wistar, Brain, Membrane; conditions: Not Active = under 50% inhibition at 10 µM
[8] = DRUGMATRIX: Serotonin (5-Hydroxytryptamine) 5-HT3 radioligand binding (ligand: [3H] GR-65630); assay type: cell membranes, Membrane; conditions: hek293; Not Active = under 50% inhibition at 10 µM
[9] = DRUGMATRIX: Calcium Channel Type L, Dihydropyridine radioligand binding (ligand: [3H] Nitrendipine); assay type: cell membranes, Rattus norvegicus, Wistar, Cerebral cortex, Membrane; conditions: Not Active = under 50% inhibition at 10 µM
[10] = DRUGMATRIX: GABAA, Flunitrazepam, Central radioligand binding (ligand: [3H] Flunitrazepam); assay type: cell membranes, Rattus norvegicus, Wistar, Brain, Membrane; conditions: Not Active = under 50% inhibition at 10 µM
[11] = DRUGMATRIX: Phorbol Ester radioligand binding (ligand: [3H] PDBu); assay type: cell membranes, Mus musculus, ICR, Brain, Membrane; conditions: Not Active = under 50% inhibition at 10 µM
[12] = DRUGMATRIX: Glutamate, AMPA radioligand binding (ligand: [3H] AMPA); assay type: cell membranes, Rattus norvegicus, Wistar, Cerebral cortex, Membrane; conditions: Not Active = under 50% inhibition at 10 µM

| Compound | IC50 (Adenosine receptor A3; cho-k1) | IC50 ([1]; insect cells) | IC50 (Substance-P receptor; cho) | IC50 [2] | IC50 (Carbonic anhydrase 2; erythrocyte) | IC50 (Melanocortin receptor 3) | IC50 [3] | IC50 (D(3) dopamine receptor; cho) | IC50 (Interstitial collagenase) | IC50 ([4]; hek293) | IC50 (Progesterone receptor) | IC50 [5] | IC50 ([1]; read-out: IC50) | further results |
| --- | --- | --- | --- | --- | --- | --- | --- | --- | --- | --- | --- | --- | --- | --- |
| CN1CCN2c3ccccc3Cc3ccccc3C2C1 (stereo not drawn) [MIANSERIN] | Not Active | Not Active | Not Active | Not Active | Not Active | Not Active | Not Active | Not Active | Not Active | Not Active | Not Active | Not Active |  |  |
| CSc1ccc2c(c1)N(CCC1CCCCN1C)c1ccccc1S2 (stereo not drawn) [THIORIDAZINE] | Not Active |  | Not Active | Not Active | Not Active | Not Active | Not Active |  | Not Active | Not Active | Not Active | Not Active | 5.05 µM |  |
| COS(C)(=O)=O [METHANESULFONIC ACID METHYL ESTER] | Not Active | Not Active | Not Active | Not Active | Not Active | Not Active | Not Active | Not Active | Not Active | Not Active |  | Not Active |  | IC50 (D(1A) dopamine receptor): Not Active; IC50 [6]: Not Active; Ki [6]: Not Active; IC50 [7]: Not Active; Ki [7]: Not Active; IC50 [8]: Not Active; Ki [8]: Not Active; IC50 [9]: Not Active; Ki [9]: Not Active; IC50 [10]: Not Active; Ki [10]: Not Active; IC50 [11]: Not Active; Ki [11]: Not Active; IC50 [12]: Not Active; Ki [12]: Not Active |
| CN(C)CCCN1c2ccccc2CCc2ccc(Cl)cc21 [CLOMIPRAMINE] | Not Active | Not Active | Not Active | Not Active | Not Active | Not Active | Not Active |  | Not Active | Not Active | Not Active | Not Active |  | IC50 (D(3) dopamine receptor; read-out: IC50): 0.139 µM; Ki (D(3) dopamine receptor): 0.047 µM |
| Nc1ccc(S(N)(=O)=O)cc1 [SULFANILAMIDE] | Not Active | Not Active | Not Active | Not Active |  | Not Active | Not Active | Not Active | Not Active | Not Active | Not Active | Not Active |  | IC50 (D(1A) dopamine receptor): Not Active; IC50 [6]: Not Active; Ki [6]: Not Active; IC50 [7]: Not Active; Ki [7]: Not Active; IC50 [8]: Not Active; Ki [8]: Not Active; IC50 [9]: Not Active; Ki [9]: Not Active; IC50 [10]: Not Active; Ki [10]: Not Active; IC50 [11]: Not Active; Ki [11]: Not Active; IC50 [12]: Not Active; Ki [12]: Not Active |
| CC(C)(O)c1ccccc1CC[C@@H](SCC1(CC(=O)O)CC1)c1cccc(/C=C/c2ccc3ccc(Cl)cc3n2)c1 [MONTELUKAST] |  |  | Not Active | Not Active | Not Active | Not Active |  |  | Not Active |  | Not Active | Not Active | 4.7 µM | IC50 ([3]; read-out: IC50): 0.856 µM |
| Clc1ccccc1C(c1ccccc1)(c1ccccc1)n1ccnc1 [CLOTRIMAZOLE] |  |  |  | Not Active |  | Not Active | Not Active |  | Not Active |  |  | Not Active | 31.9 µM | IC50 (Adenosine receptor A3; read-out: IC50): 4.75 µM; Ki (Adenosine receptor A3; read-out: Ki): 2.69 µM; IC50 (Substance-P receptor; read-out: IC50): 16 µM; Ki (Substance-P receptor; read-out: Ki): 8.75 µM; IC50 (Carbonic anhydrase 2; read-out: IC50): 30.1 µM; IC50 (D(3) dopamine receptor; read-out: IC50): 2.65 µM; Ki (D(3) dopamine receptor): 0.899 µM; IC50 ([4]; read-out: IC50): 4.98 µM; Ki ([4]; read-out: Ki): 1.76 µM; IC50 (Progesterone receptor; read-out: IC50): 8.77 µM; Ki (Progesterone receptor; read-out: Ki): 1.14 µM |
| COc1cccc(C2(O)CCCCC2CN(C)C)c1 (stereo not drawn) [TRAMADOL] | Not Active | Not Active | Not Active | Not Active | Not Active | Not Active | Not Active | Not Active | Not Active | Not Active | Not Active | Not Active |  |  |
| O=C(CCCN1CCC(O)(c2ccc(Cl)cc2)CC1)c1ccc(F)cc1 [HALOPERIDOL] | Not Active | Not Active | Not Active | Not Active | Not Active | Not Active | Not Active |  | Not Active | Not Active |  | Not Active |  |  |
| COc1ccc(CCN2CCC(Nc3nc4ccccc4n3Cc3ccc(F)cc3)CC2)cc1 [ASTEMIZOLE] |  |  |  | Not Active | Not Active |  | Not Active |  | Not Active |  | Not Active | Not Active | 2.85 µM |  |
